For orientation: IC50 means the midpoint of a concentration-inhibition curve.

Structures are written as SMILES.

From ChEMBL document CHEMBL5608221, “Innovative Therapeutic Approaches Targeting K-Ras: Analysis of Macrocyclic Compounds, Peptidomimetics, and Pyridopyrimidine Inhibitors” (ACS Med Chem Lett, 2024) come the findings set out here.

The target of this experiment is GTPase KRas (Homo sapiens, UniProt P01116, G12V). The experiment is described as follows: Inhibition of GDP bound KRAS G12V mutant (unknown origin).
Sequence of GTPase KRas (P01116 whole entry G12V): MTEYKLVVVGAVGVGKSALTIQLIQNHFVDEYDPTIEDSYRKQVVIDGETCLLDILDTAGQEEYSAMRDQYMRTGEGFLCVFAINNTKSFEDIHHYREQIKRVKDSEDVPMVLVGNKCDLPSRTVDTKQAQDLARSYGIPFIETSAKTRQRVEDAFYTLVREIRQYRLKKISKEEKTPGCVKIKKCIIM
With `C#Cc1c(F)ccc2cc(O)cc(-c3ncc4c(N(C)[C@H]5C[C@@H]5F)nc(OC[C@@]56CCCN5CC(=C)C6)nc4c3F)c12`, the IC50 is 246 pM. Compound `[2H]C([2H])([2H])N(c1nc(OC([2H])([2H])C23CCC([2H])([2H])N2C[C@]([2H])(F)C3)nc2c(F)c(-c3cc(O)cc4ccc(F)c(C#C)c34)ncc12)[C@H]1C[C@@H]1F` (some centres not stated) gave an IC50 of 216 pM. This IC50 and that of the compound before are within 1.5-fold of each other. Turning to `[2H]C([2H])([2H])N(c1nc(OC([2H])([2H])C23CCC([2H])([2H])N2C[C@@]([2H])(F)C3)nc2c(F)c(-c3cc(O)cc4ccc(F)c(C#C)c34)ncc12)[C@H]1C[C@@H]1F` (some centres not stated), the IC50 is 689 pM. Take `C#Cc1c(F)ccc2cc(O)cc(-c3ncc4c(N(C)[C@H]5C[C@@H]5F)nc(OCC56CCCN5CC(=C)C6)nc4c3F)c12` (some centres not stated): the midpoint of inhibition, the IC50, lay at 405 pM. For `C#Cc1c(F)ccc2cc(N)cc(-c3ncc4c(N(C)[C@H]5C[C@@H]5F)nc(OCC56CCCN5CC(=C)C6)nc4c3F)c12.OCC(F)(F)F` (some centres not stated), the IC50 was 1990 pM. As for `C#Cc1c(F)ccc2cc(O)cc(-c3ncc4c(N(C)[C@H]5C[C@@H]5F)nc(OCC56CCCN5CC(=C)C6)nc4c3F)c12.OCC(F)(F)F` (some centres not stated), inhibition was half-maximal at 371 pM (IC50). Turning to `C#Cc1c(F)ccc2cc(O)cc(-c3ncc4c(N(C)[C@H]5C[C@@H]5F)nc(OC[C@]56CCCN5CC(=C)C6)nc4c3F)c12`, the IC50 is 589 pM.
